These compounds were tested on Botrytis cinerea (assay: Activity against gray mold on bell pepper leaves caused by Botrytis cinerea, protective application (also comparative experiment)). Conditions: 5 days, untreated 90.
Assay type: in vivo
Procedure: The active compounds were prepared as a stock solution comprising 25 mg of active compound which was made up to 10 ml using a mixture of acetone and/or dimethyl sulfoxide and the emulsifier Uniperol® EL (wetting agent having an emulsifying and dispersing action based on ethoxylated alkylphenols) in a volume ratio of solvent/emulsifier of 99:1. The mixture was then made up to 100 ml with water. This stock solution was diluted with the solvent/emulsifier/water mixture described to give the desired concentration of active compounds.
Activity Against Gray Mold on Bell Pepper Leaves Caused by Botrytis cinerea, Protective Application
Bell pepper seedlings of the cultivar “Neusiedler Ideal Elite” were, after 2-3 leaves were well developed, sprayed to runoff point with an aqueous suspension having the concentration of active compounds stated below. The next day, the treated plants were inoculated with a spore suspension of Botrytis cinerea which comprised 1.7×10^6 spores/ml in a 2% strength aqueous biomalt solution. The test plants were then placed into a dark climatized chamber at 22-24° C. and high atmospheric humidity. After 5 days, the extent of the fungal infection on the leaves could be determined visually in %.
Comparative Experiment—Activity Against Gray Mold on Bell Pepper Leaves Caused by Botrytis cinerea, Protective Application
Compound No. 47 of Table 1 from EP-A 0 589 301 was compared to compounds 9.17 and 9.20 according to the invention from Table 9.

In order of rising “Infection in % at 250 ppm at BOTRCI P1” value:
1. Cc1nn(C)cc1C(=O)Nc1ccccc1-c1ccc(F)c(Cl)c1 [9.17]  5%
2. Cc1nn(C)cc1C(=O)Nc1ccccc1-c1ccc(F)cc1F [9.20]  7%
3. Cc1nn(C)cc1C(=O)Nc1ccccc1-c1ccc(F)cc1 [Comp. 47, reference compound]  60%
